Measurements taken from patent US6211158A, “Desazapurine-nucleotide derivatives, processes for the preparation thereof, pharmaceutical compositions containing them and the use thereof for nucleic acid sequencing and as antiviral agents” (Roche Diagnostics GmbH, priority 1987, dated 2001).

Tests used:
[1] = Stability of the N-glycosidic bond under acidic conditions, UV-absorbance as a function of time (Example 30); assay type: physicochemical; design: key to stability towards hydrolysis (classified): classified as stable, when no hydrolysis occurred within the hydrolysis time of the corresponding purine-derivatives; details: for half-life: read-out: half life [t(1/2)] of hydrolysis
Description: The determination of the stability of the N-glycosidic bond was carried out under acidic conditions by measuring the UV-absorbance as a function of time. The compounds were classified as stable, when no hydrolysis occurred within the hydrolysis time of the corresponding purine-derivatives.
Table of kinetic data with respect to hydrolysis of […]

[2] = Hydrolysis of the N-glycosidic bond in hydrochloric acid at 25° C., UV absorption at 258 nm (Example 29); assay type: physicochemical; details: for half-life: read-out: half life time T/2 of hydrolysis
Description: The stability of the N-glycosidic bond of 2',3'-didesoxynucleosides is bound up with the antiviral activity.
The hydrolysis of the bond was investigated at 25° C. in three different concentrations of hydrochloric acid. For this purpose, the UV absorption (Et) was measured at 258 nm. Via the absorption/time curve, there were determined the velocity constants of the hydrolysis (k) and the half life times (T/2) on the basis of the following equation:
k=1/t×ln(Eo -Eoo)/(Et -Eoo)
Eo being the absorption at time t=0 and Eoo being the absorption after complete termination of the reaction.
There were compared 2',3'-dideoxyadenosine (a) and 6-amino-8-aza-7-deaza-2',3'-dideoxy-9-β-D-ribofuranosylpurine (b) at 25° C.

SMILES | stability towards hydrolysis (classified) ([1]; 0.01 N HCl) | stability towards hydrolysis (classified) ([1]; 0.1 N HCl) | stability towards hydrolysis (classified) ([1]; 1 N HCl) | half-life ([1]; 0.01 n hcl) | further results
Nc1nccc2c1ccn2[C@H]1CC[C@@H](CO)O1 [c^3 c^7 ddA, 6-amino-3,7-dideaza-2',3'-dideoxy-9-β-D-ribofuranosylpurine] | stable | stable | stable | – | –
Nc1ncnc2c1ccn2[C@H]1CC[C@@H](CO)O1 [c^7 ddA, 4-Amino-7-(2',3'-dideoxy-β-D-glyceropentofuranosyl)-7H-pyrrolo[2,3-d]pyrimidine] | stable | stable | stable | – | –
Nc1ncnc2c1cnn2[C@H]1CC[C@@H](CO)O1 [c^7 z^8 ddA, 6-Amino-8-aza-7-deaza-2',3'-dideoxy-9-β-D-ribofuranosylpurine] | – | – | – | 280 min | half-life ([1]; 0.1 n hcl): 20.4 min; velocity constant of the hydrolysis k ([2]; 0.01 N HCl): 0.0025 min⁻¹; half-life ([2]; 0.01 N HCl): 280 min; half-life ([2]; 0.1 N HCl): 20.4 min; half-life ([2]; 1 N HCl): 0.83 min; times more stable than (a) ([2]; compared with 2',3'-dideoxyadenosine (a), HCl): more than 10 times
Nc1ncnc2c1ncn2[C@H]1CC[C@@H](CO)O1 [ddA, 2',3'-dideoxyadenosine, reference compound] | – | – | – | 31.5 min | half-life ([1]; 0.1 n hcl): 1.9 min; velocity constant of the hydrolysis k ([2]; 0.01 N HCl): 0.022 min⁻¹; half-life ([2]; 0.01 N HCl): 31.5 min; half-life ([2]; 0.1 N HCl): 1.9 min

Further lines, with some results ahead:

stability towards hydrolysis (classified) ([1]; 0.01 N HCl) | stability towards hydrolysis (classified) ([1]; 0.1 N HCl) | stability towards hydrolysis (classified) ([1]; 1 N HCl) | half-life ([1]; 0.01 n hcl) | SMILES | further results
stable | stable | stable | – | Nc1nc2c(ccn2[C@H]2CC[C@@H](CO)O2)c(=O)[nH]1 [c^7 ddG, 2-Amino-7-deaza-2',3'-dideoxy-9-β-D-ribofuranosylpurine-6-one] | –
– | – | – | 135 min | Nc1nc2c(cnn2[C@H]2CC[C@@H](CO)O2)c(=O)[nH]1 [c^7 z^8 ddG, 2-Amino-(2',3'-dideoxy-β-D-glyceropentofuranosyl)-1H-pyrazolo[3,4-d]pyrimidin-4-one] | –
– | – | – | 37 min | Nc1nc2c(ncn2[C@H]2CC[C@@H](CO)O2)c(=O)[nH]1 [ddG, reference compound] | –
